Results taken from patent publication US20070049588A1, “ATM INHIBITOR” (priority 2005, published 2007).
pIC50: −log10 of the molar value. Like-named read-outs stand apart in the source and are kept apart here.

What was measured:
[1] = Oral bioavailability in mice; type: in vivo; conditions: mouse, plasma, 10 mg/kg oral vs intravenous, AUC ratio
Experimental: In order to assess the oral bioavailability of compounds (Ia)-(IV), the compounds were dissolved to 5 mg/ml in an aqueous formulation which was then dosed orally and intravenously at 10 mg/kg to discrete groups of mice. For the intravenously dosed animals, blood samples were taken (three mice per time point) at 3, 5, 15, 30, 60, 120, 240 and 360 minutes post-dose. For the orally dosed animals, blood samples were taken (three mice per time point) at 5, 15, 30, 60, 120, 240 and 360 minutes post-dose. The plasma concentration of each compound at all time points, for both dose routes, was determined by HPLC-MS/MS analysis. The details of the HPLC-MS/MS method are as follows.
Sample was extracted for analysis by homogenisation of tissue, if required, vortex mixing and then centrifugation to produce a compound-containing supernatant that can be assayed by HPLC-MS/MS. Quantitation was achieved by comparison to a serial dilution of a known amount of parent compound. The chromatographic and MS conditions used are given below.
MS conditions were determined by infusing compound dissolved in 50:50 acetonitrile:formic acid (0.01%).
Total exposure as indicated by area under the curve (AUC) was calculated. By definition, intravenous delivery results in 100% bioavailability and the comparative bioavailability obtained through oral delivery is calculated by: [formula]

[2] = Tissue pharmacokinetics, plasma and tumour concentrations; type: in vivo; conditions: mouse, ip, mice, 50 mg/kg i.p., mean; for concentration at 1 h: 1 hr post-dose; for concentration at 4 h: 4 hr post-dose
Experimental: In order to assess tissue pharmacokinetics, a single intraperitoneal (i.p.) dose of 50 mg/kg of each compound was administered to discrete groups of mice. Blood and tumour samples were taken (three mice per time point) at 1 and 4 hours post-dose. The concentration of each compound in both matrices at both time points was determined by HPLC-MS/MS analysis using the method described above for Example 6. The mean concentrations found are presented below.

[3] = Maximum single tolerable intravenous dose in rats; conditions: both sexes, rat, in vivo, highest dose without clinical signs in 4 animals, read-out: Rat MTD (i.v.)
Experimental: (§1) The maximum single tolerable intravenous dose which could be administered to rats and mice was determined. Escalating doses of each compound were given to discrete, naive pairs of animals (1 male and 1 female) until a dose that elicited clinical signs, was reached. Then for each compound, two further animals were then treated with the highest dose that had not produced any clinical signs. […]

[4] = Maximum single tolerable intravenous dose in mice; conditions: both sexes, mouse, in vivo, highest dose without clinical signs in 4 animals, read-out: Mouse MTD (i.v.)
Experimental: as §1

[5] = Clonogenic survival assays with chemotherapeutics; type: cell-based; conditions: in vitro clonogenic survival assays
HIV = test: HIV-based LUCIA assay, repression of retroviral infection; type: cell-based; conditions: Human immunodeficiency virus 1
Experimental: The ability of compound (Ia) to repress retroviral infections was assessed using an HIV-based LUCIA assay. The LUCIA assay was carried out as described in WO 03/070726 (see pages 125-126 therein), which is incorporated herein by reference.

[6] = plasma, read-out: Plasma concentration
[7] = tumour, read-out: Tumour concentration

| SMILES | bioavailability [1] | concentration at 1 h [2, 6] | concentration at 4 h [2, 6] | concentration at 1 h [2, 7] | concentration at 4 h [2, 7] | MTD [3] | MTD [4] | Potentiation of cytotoxic effects of etoposide, camptothecin and doxorubicin [5] | pIC50 (HIV) |
| --- | --- | --- | --- | --- | --- | --- | --- | --- | --- |
| CN1CCN(CCC(=O)Nc2ccc3c(c2)Cc2cccc(-c4cc(=O)cc(N5CCOCC5)o4)c2S3)CC1 [Compound (II)] | 0% | 3030 ng/mL | 137 ng/mL | 2810 ng/g | 1060 ng/g | 40 mg/kg | < 40 mg/kg |  |  |
| CN1CCN(CCC(=O)Nc2ccc3c(c2)Sc2cccc(-c4cc(=O)cc(N5CCOCC5)o4)c2S3)CC1 [Compound (III)] | 0% | 2030 ng/mL | 626 ng/mL | 1730 ng/g | 2190 ng/g | 75 mg/kg | < 40 mg/kg |  |  |
| CC(C)N1CCN(CCC(=O)Nc2ccc3c(c2)Sc2cccc(-c4cc(=O)cc(N5CCOCC5)o4)c2S3)CC1 [Compound (IV)] | 0% | 1920 ng/mL | 383 ng/mL | 899 ng/g | 1090 ng/g |  | < 40 mg/kg |  |  |
| C[C@@H]1CN(CC(=O)Nc2ccc3c(c2)Cc2cccc(-c4cc(=O)cc(N5CCOCC5)o4)c2S3)C[C@H](C)O1 [Compound (Ia), 2-((2R,6S)-2,6-Dimethyl-morpholin-4-yl)-N-[5-(6-morpholin-4-yl-4-oxo-4H-pyran-2-yl)-9H-thioxanthen-2-yl]-acetamide] | 37% | 31800 ng/mL | 5960 ng/mL | 19700 ng/g | 4140 ng/g | > 100 mg/kg | 75 mg/kg | potentiate the cytotoxic effects | 5.89 |
